pEC50, pIC50: −log10 of the molar value. Where two headings read alike, the source gives them in different places.
Assays:
[1] = test system: PD1-ss+10aa/Gaussia Luciferase; assay: Dox-Induced PD1-ss-Gluc Assay; assay type: cell-based; conditions: 24 hr Dox induction, 293FRT/TO cells, read-out: 24 hr Dox Inducible PD1ssGluc 293FRT/TO: Mean IC50
How it was run: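 Compounds were added in DMSO/media with doxycycline and incubated at 37 °C, 5% CO2, on 293 T-REx cells plated one day earlier. These cells stably express, under tetracycline-regulated control, a Gaussia luciferase fused to the PD1 signal peptide plus 10 residues. Structures drawn without stereochemistry were tested as stereoisomer mixtures.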

[2] = test system: TNFα-FL/Gaussia Luciferase; assay: Dox Induced TNFα-FL-Gluc Assay; assay type: cell-based; conditions: for pIC50: 24 hr Dox induction, 293FRT/TO cells, read-out: 24 hr Dox Inducible TNFaFLGluc 293FRT/TO: Mean IC50; for 24 hr Dox Inducible TNFaFLGluc 293FRT/TO: TNF/PD1: ratio of TNFaFLGluc IC50 to PD1ssGluc IC50
How it was run: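 Flp-In 293 T-REx cells stably expressing full-length TNFα (aa 1-233) fused at its C-terminus to Gaussia luciferase under tetracycline-regulated control were plated the day before assay. Compound dilutions in DMSO/media containing doxycycline were added and incubated at 37 °C, 5% CO2. Unspecified stereochemistry denotes stereoisomer mixtures.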

[3] = test system: HER3-ss+4aa/Gaussia Luciferase; assay: Dox-Induced Her3-ss-Gluc Assay; assay type: cell-based; conditions: 24 hr Dox induction, 293FRT/TO cells, read-out: 24 hr Dox Inducible Her3(ss + 4)Gluc 293FRT/TO: Mean IC50
How it was run: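 Stable Flp-In 293 T-REx line expressing Gaussia luciferase fused to the HER3 signal sequence plus 4 amino acids under tetracycline-regulated (T-REx) control. Cells plated the day before, then treated with compound dilutions in DMSO/media containing doxycycline and incubated at 37° C., 5% CO2.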

[4] = test system: IL-2-FL/Gaussia Luciferase; assay: Dox Induced IL2-FL-Gluc Assay; assay type: cell-based; conditions: for pIC50: 24 hr Dox induction, 293FRT/TO cells, read-out: 24 hr Dox Inducible IL2FLGluc 293FRT/TO: Mean IC50; for 24 hr Dox Inducible IL2FLGluc 293FRT/TO: IL2/PD1: ratio of IL2FLGluc IC50 to PD1ssGluc IC50
How it was run: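 Flp-In 293 T-REx cells stably carrying doxycycline-inducible full-length IL-2 (aa 1-153) fused at its C-terminus to Gaussia luciferase, selected with hygromycin and blasticidin. Cells were plated the day before, then treated with compounds in DMSO/media containing doxycycline at 37° C, 5% CO2.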

[5] = test system: multiple myeloma cell line NCI-H929; assay: H929 Cell Viability Assay; assay type: cell-based, human; conditions: Homo sapiens, NCI-H929, 48 h, NCI-H929 cells, Celltiter-Glo
How it was run: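 NCI-H929 cells, resuspended in RPMI 1640 with 10% FBS and 2 mM glutamine, were treated with compound dilutions in DMSO/media and incubated 48 hours at 37° C, 5% CO2. Viability was read by CellTiter-Glo luminescence. Compounds drawn without stereochemistry were tested as stereoisomer mixtures.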

[6] = test system: multiple myeloma cell line U266B1; assay: U266 Cell Viability Assay; assay type: cell-based, human; conditions: Homo sapiens, U-266, 48 h, U266B1 cells, Celltiter-Glo
How it was run: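 Cells grown in RPMI 1640 with 10% FBS, 2 mM glutamine and penicillin/streptomycin were exposed to compound dilutions in DMSO/media for 48 hours at 37° C., 5% CO2. Viability was read by CellTiter-Glo luminescence. Undefined stereocentres mean data for stereoisomer mixtures.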

[7] = Liver Microsome Stability Assay (rat); conditions: rat liver microsomes, with NADPH, 1.0 uM compound
Description: (§1) Stability of a compound was assessed in the presence of liver microsomes from various sources—mouse, rat, monkey and human liver microsomes. 1.0 uM compound, 0.4% DMSO in 0.1 M Potassium Phosphate with 1.0 mg/mL liver microsomes, were incubated at 37° C. with or without 1 mM NADPH. The samples were quenched at 0, and 30 minutes.

[8] = Liver Microsome Stability Assay (mouse); conditions: mouse liver microsomes, with NADPH, 1.0 uM compound
Description: as §1

[9] = Liver Microsome Stability Assay (human); conditions: human liver microsomes, with NADPH, 1.0 uM compound
Description: as §1

[10] = Liver Microsome Stability Assay (monkey); conditions: monkey liver microsomes, with NADPH, 1.0 uM compound
Description: as §1

[11] = '<=>' given where both are I.A.

pIC50 [1]	pIC50 [2]	pIC50 [3]	pIC50 [4]	pEC50 [5]	pEC50 [6]	Liver Microsome Stability (Multiple Species): Rat - % Remaining after 30 min w/NADPH [7] [%]	Liver Microsome Stability (Multiple Species): Mouse - % Remaining after 30 min w/NADPH [8] [%]	Liver Microsome Stability (Multiple Species): Human - % Remaining after 30 min w/NADPH [9] [%]	Liver Microsome Stability (Multiple Species): Monkey - % Remaining after 30 min w/NADPH [10] [%]	pIC50 ([1]; mean)	pIC50 ([2]; mean)	pIC50 ([3]; mean)	pIC50 ([4]; mean)	Compound	24 hr Dox Inducible TNFaFLGluc 293FRT/TO: TNF/PD1 [2]	24 hr Dox Inducible IL2FLGluc 293FRT/TO: IL2/PD1 [4]	24 hr Dox Inducible TNFaFLGluc 293FRT/TO: TNF/PD1 [2, 11]	24 hr Dox Inducible IL2FLGluc 293FRT/TO: IL2/PD1 [4, 11]
6.25	4.74	5.96	5.57	5.20	5.08	56.9	40.4	47	2.45	–	–	–	–	O=C(Nc1nc([C@H]2CCCN2c2ccc(OC3=CCNCC3)cc2)cs1)c1cccn1Cc1ccnc(F)c1 [Compound A89, (R)-1-((2-fluoropyridin-4-yl)methyl)-N-(4-(1-(4-((1,2,3,6-tetrahydropyridin-4-yl)oxy)phenyl)pyrrolidin-2-yl)thiazol-2-yl)-1H-pyrrole-2-carboxamide]	32.9	4.9	–	–
8.06	6.78	7.84	7.75	6.19	< 4.60	12.8	10.9	11.1	0.9	–	–	–	–	[2H]c1c([2H])c([2H])c(N2CCC[C@@H]2c2csc(NC(=O)c3cccn3Cc3ccnc(F)c3)n2)c([2H])c1[2H] [Compound A94, (R)-1-((2-fluoropyridin-4-yl)methyl)-N-(4-(1-(phenyl-d5)pyrrolidin-2-yl)thiazol-2-yl)-1H-pyrrole-2-carboxamide]	19.2	2	–	–
–	–	–	–	< 4.60	< 4.60	1.23	16.3	3.12	6.79	5.37	< 4.60	5.97	5.79	N#CCc1ccccc1Cn1cccc1C(=O)Nc1nc([C@H]2CCCN2c2ccccc2)cs1 [Compound C93, (R)-1-(2-(cyanomethyl)benzyl)-N-(4-(1-phenylpyrrolidin-2-yl)thiazol-2-yl)-1H-pyrrole-2-carboxamide]	–	–	>5.86	0.38
–	–	–	–	< 4.60	< 4.60	8.76	1.66	5.88	1.37	5.42	< 4.60	5.02	4.65	N#CCC1(Cn2cccc2C(=O)Nc2nc([C@H]3CCCN3c3ccccc3)cs2)CC1 [Compound C8, (R)-1-((1-(cyanomethyl)cyclopropyl)methyl)-N-(4-(1-phenylpyrrolidin-2-yl)thiazol-2-yl)-1H-pyrrole-2-carboxamide]	–	–	>6.61	5.9
8.00	6.62	7.68	7.76	6.39	4.79	1.84	1.56	3.01	1.66	–	–	–	–	O=C(Nc1nc([C@H]2CCCN2c2ccc(F)cc2)cs1)c1cccn1Cc1ccncc1 [Compound A25, (R)-N-(4-(1-(4-fluorophenyl)pyrrolidin-2-yl)thiazol-2-yl)-1-(pyridin-4-ylmethyl)-1H-pyrrole-2-carboxamide]	24.2	1.8	–	–
–	–	–	–	5.13	< 4.60	35.4	28.6	17.5	13.5	7.63	5.31	6.39	6.28	C/C(=C\c1ccc(OC(F)(F)F)cn1)c1csc(NC(=O)c2cccn2Cc2ccncc2)n1 [Compound E2, (E)-1-(pyridin-4-ylmethyl)-N-(4-(1-(5-(trifluoromethoxy)pyridin-2-yl)prop-1-en-2-yl)thiazol-2-yl)-1H-pyrrole-2-carboxamide]	–	–	208	23
–	–	–	–	4.66	< 4.60	5.31	14.8	15.7	1.91	6.24	5.23	6.03	5.72	C[C@H](CC#N)Cn1cccc1C(=O)Nc1nc([C@H]2CCCN2c2ccccc2)cs1 [Compound C88, 1-((R)-3-cyano-2-methylpropyl)-N-(4-((R)-1-phenylpyrrolidin-2-yl)thiazol-2-yl)-1H-pyrrole-2-carboxamide]	–	–	10.2	3.3
–	–	–	–	5.07	5.02	8.66	11.3	0.16	0.16	7.98	4.73	5.43	5.28	Cc1c(/C=C/c2csc(NC(=O)c3cccn3Cc3ccnc(F)c3)n2)ncn1C(C)C [Compound B116, (E)-1-((2-fluoropyridin-4-yl)methyl)-N-(4-(2-(1-isopropyl-5-methyl-1H-imidazol-4-yl)vinyl)thiazol-2-yl)-1H-pyrrole-2-carboxamide]	–	–	1780	500
–	–	–	–	6.85	< 4.60	2.87	0.33	0.33	0.13	8.26	7.15	7.84	7.78	CCc1ccc(N2CCC[C@@H]2c2csc(NC(=O)c3cccn3Cc3ccncc3)n2)nc1 [Compound E65, (R)-N-(4-(1-(5-ethylpyridin-2-yl)pyrrolidin-2-yl)thiazol-2-yl)-1-(pyridin-4-ylmethyl)-1H-pyrrole-2-carboxamide]	–	–	12.9	3

Reference: patent US20230286973A1, “PROTEIN SECRETION INHIBITORS” (KEZAR LIFE SCIENCES, priority 2020, published 2023)
